{"source": "patent US20120201824A1", "about": "“Compositions and Methods for Inhibiting an Oncogenic Protein to Enhance Immunogenicity” (priority 2008, published 2012)", "key": {"[1]": {"system": "CD274 mRNA", "assay": "RT-PCR for CD274 mRNA in ALK+ TCL cells", "assay_type": "cell-based, human", "conditions": "SUDHL-1 cells; rapamycin 300 nM, wortmannin 20 nM, U0126 15 μM, Jak3 inhibitor 1 μM", "procedure": "Total RNA was isolated using RNeasy Mini kit (Qiagen), treated with DNase I (Invitrogen), and reverse-transcribed by using Thermoscript RT-PCR system (Invitrogen) with random hexamers as cDNA synthesis primers. The following primer pairs were used for the cDNA amplification: β-actin, 5'[…] ID NO: 1) and 5'[…] ID NO: 2); CD274, 5'[…] ID NO: 3) and 5'[…] ID NO: 4). PCR was performed by using Platium […] polymerase (Invitrogen) for 21 cycles comprised of the denaturation step for 20 seconds at 94° C., annealing for 30 seconds at 58° C. and elongation for 30 seconds at 72° C. The PCR products were visualized by ethium bromide staining in 1.5% agarose gel. […] Inhibitors of: […] Marzec et al., 2007, Oncogene 26: 813-821; Marzec et al., 2007, Oncogene 26: 5606-5614; Marzec et al., 2008, Cancer Res 68: 1083-1091). A mixture of four STAT3 or STAT5b specific siRNA or non-targeting siRNA (all purchased from Dharmacon) was introduced into cells at 100 nM by lipofection with the hew generation Lipofectamine (DMRIE-C; Invitrogen). The procedure was repeated after 24 hours and the cells were cultured for an additional 24 hours. The cells were harvested at one time point 48 hours after first transfection. Extend of the protein knock-down was examined by Flow Cytometry and RT-PCR."}, "[2]": {"system": "CD274 protein", "assay": "Flow cytometry for cell-surface CD274 protein in ALK+ TCL cells", "assay_type": "cell-based, human", "conditions": "SUDHL-1 cells; rapamycin 300 nM, wortmannin 20 nM, U0126 15 μM, Jak3 inhibitor 1 μM", "procedure": "All antibodies were purchased from BD Pharmingen. The stained cells were applied to the flow cytometer (FACSCalibur; Becton Dickinson), and 20,000 events were analyzed. Results of the cell staining are presented as histograms with cell number on the vertical axis and relative fluorescence on the logarithmic horizontal axis. […] Inhibitors of: […] Marzec et al., 2007, Oncogene 26: 813-821; Marzec et al., 2007, Oncogene 26: 5606-5614; Marzec et al., 2008, Cancer Res 68: 1083-1091). A mixture of four STAT3 or STAT5b specific siRNA or non-targeting siRNA (all purchased from Dharmacon) was introduced into cells at 100 nM by lipofection with the hew generation Lipofectamine (DMRIE-C; Invitrogen). The procedure was repeated after 24 hours and the cells were cultured for an additional 24 hours. The cells were harvested at one time point 48 hours after first transfection. Extend of the protein knock-down was examined by Flow Cytometry and RT-PCR."}}}
{"smiles": "N#CC(=C(/N)Sc1ccccc1N)/C(C#N)=C(\\N)Sc1ccccc1N", "note": "[U0126]", "values": [{"measurement": "CD274 expression on the mRNA level (RT-PCR)", "setting": "[1]", "value": "no detectable impact"}, {"measurement": "CD274 expression on the protein level (flow cytometry)", "setting": "[2]", "value": "no detectable impact"}]}
